According to ChEMBL document CHEMBL1131977, “Synthesis and in vitro activity of new oxazolidinone antibacterial agents having substituted isoxazoles” (1999):
Converted amounts (≈) assume the structure as drawn.

Assays:
Type in all cases: functional
Enterococcus faecium [1] = assay: In vitro antibacterial activity against Enterococcus faecium C6301 (E.f.2).
Staphylococcus aureus [2] = assay: In vitro antibacterial activity against Staphylococcus aureus (S. a.) ATCC 29213.
[3] = tested on: Staphylococcus epidermidis; assay: In vitro antibacterial activity against Staphylococcus epidermis (S.e.2) C2235.
Staphylococcus aureus [4] = assay: In vitro antibacterial activity against methicillin-susceptible Staphylococcus aureus (MSSA) C2214.
Streptococcus pyogenes [5] = assay: In vitro antibacterial activity against Streptococcus pyogenes C6003 (S.p.2).
Enterococcus faecalis = assay: In vitro antibacterial activity against Enterococcus faecalis C6291 (E.f.1).
Streptococcus pyogenes [6] = assay: In vitro antibacterial activity against Streptococcus pyogenes ATCC 8668 (S.p.1).
Enterococcus faecium [7] = assay: In vitro antibacterial activity against vancomycin-resistant Enterococcus faecium C6487 (VRE).
[8] = tested on: Staphylococcus epidermidis; assay: In vitro antibacterial activity against Staphylococcus epidermis (S.e.1) […].
Staphylococcus aureus [9] = assay: In vitro antibacterial activity against ciprofloxacin-resistant Staphylococcus aureus (CRSA) C6043.
Staphylococcus aureus [10] = assay: In vitro antibacterial activity against methicillin-resistant Staphylococcus aureus (MRSA) C6068.

Compound | MIC (Enterococcus faecium [1]) | MIC (Staphylococcus aureus [2]) | MIC [3] | MIC (Staphylococcus aureus [4]) | MIC (Streptococcus pyogenes [5]) | MIC (Enterococcus faecalis) | MIC (Streptococcus pyogenes [6]) | MIC (Enterococcus faecium [7]) | MIC [8] | MIC (Staphylococcus aureus [9]) | MIC (Staphylococcus aureus [10])
CC(=O)NC[C@H]1CN(c2ccc(N3CCN(C(=O)c4cc(Cl)no4)CC3)c(F)c2)C(=O)O1 | 2 µg/mL (≈ 4.29 µM) | 4 µg/mL (≈ 8.59 µM) | 1 µg/mL (≈ 2.15 µM) | 4 µg/mL (≈ 8.59 µM) | 1 µg/mL (≈ 2.15 µM) | 2 µg/mL (≈ 4.29 µM) | 1 µg/mL (≈ 2.15 µM) | 2 µg/mL (≈ 4.29 µM) | 1 µg/mL (≈ 2.15 µM) | 2 µg/mL (≈ 4.29 µM) | 1 µg/mL (≈ 2.15 µM)
CC(=O)NC[C@H]1CN(c2ccc(N3CCN(Cc4cc(-c5ccc(Cl)cc5)no4)CC3)c(F)c2)C(=O)O1 | 32 µg/mL (≈ 60.6 µM) | > 32 µg/mL | 32 µg/mL (≈ 60.6 µM) | 32 µg/mL (≈ 60.6 µM) | 4 µg/mL (≈ 7.58 µM) | > 32 µg/mL | 4 µg/mL (≈ 7.58 µM) | 32 µg/mL (≈ 60.6 µM) | 16 µg/mL (≈ 30.3 µM) | > 32 µg/mL | 16 µg/mL (≈ 30.3 µM)
CC(=O)NC[C@H]1CN(c2ccc(N3CCN(Cc4cc(C)no4)CC3)c(F)c2)C(=O)O1 | 16 µg/mL (≈ 37.1 µM) | 16 µg/mL (≈ 37.1 µM) | 16 µg/mL (≈ 37.1 µM) | 16 µg/mL (≈ 37.1 µM) | 16 µg/mL (≈ 37.1 µM) | 16 µg/mL (≈ 37.1 µM) | 16 µg/mL (≈ 37.1 µM) | 16 µg/mL (≈ 37.1 µM) | 16 µg/mL (≈ 37.1 µM) | 16 µg/mL (≈ 37.1 µM) | 16 µg/mL (≈ 37.1 µM)
CC(=O)NC[C@H]1CN(c2ccc(N3CCN(C(=O)c4cc(C#N)no4)CC3)c(F)c2)C(=O)O1 | 1 µg/mL (≈ 2.19 µM) | 2 µg/mL (≈ 4.38 µM) | 0.5 µg/mL (≈ 1.1 µM) | 2 µg/mL (≈ 4.38 µM) | 0.25 µg/mL (≈ 0.548 µM) | 2 µg/mL (≈ 4.38 µM) | 0.25 µg/mL (≈ 0.548 µM) | 1 µg/mL (≈ 2.19 µM) | 0.5 µg/mL (≈ 1.1 µM) | 2 µg/mL (≈ 4.38 µM) | 1 µg/mL (≈ 2.19 µM)
CC(=O)NC[C@H]1CN(c2ccc(N3CCN(C(=O)c4cc(-c5csnn5)no4)CC3)c(F)c2)C(=O)O1 | 1 µg/mL (≈ 1.94 µM) | 2 µg/mL (≈ 3.88 µM) | 1 µg/mL (≈ 1.94 µM) | 2 µg/mL (≈ 3.88 µM) | 0.5 µg/mL (≈ 0.97 µM) | 1 µg/mL (≈ 1.94 µM) | 0.5 µg/mL (≈ 0.97 µM) | 1 µg/mL (≈ 1.94 µM) | 0.5 µg/mL (≈ 0.97 µM) | 2 µg/mL (≈ 3.88 µM) | 1 µg/mL (≈ 1.94 µM)
CC(=O)NC[C@H]1CN(c2ccc(N3CCN(C(=O)c4cc(C(F)(F)F)no4)CC3)c(F)c2)C(=O)O1 | 4 µg/mL (≈ 8.01 µM) | 4 µg/mL (≈ 8.01 µM) | 2 µg/mL (≈ 4 µM) | 4 µg/mL (≈ 8.01 µM) | 1 µg/mL (≈ 2 µM) | 4 µg/mL (≈ 8.01 µM) | 1 µg/mL (≈ 2 µM) | 4 µg/mL (≈ 8.01 µM) | 2 µg/mL (≈ 4 µM) | 4 µg/mL (≈ 8.01 µM) | 2 µg/mL (≈ 4 µM)
CC(=O)NC[C@H]1CN(c2ccc(N3CCN(C(=O)c4cc(C(=O)O)no4)CC3)c(F)c2)C(=O)O1 | > 32 µg/mL | > 32 µg/mL | > 32 µg/mL | > 32 µg/mL | 16 µg/mL (≈ 33.7 µM) | > 32 µg/mL | 16 µg/mL (≈ 33.7 µM) |  | > 32 µg/mL |  | 
CC(=O)NC[C@H]1CN(c2ccc(N3CCN(Cc4cc(-c5ccc(C#N)cc5)no4)CC3)c(F)c2)C(=O)O1 | 16 µg/mL (≈ 30.9 µM) | 16 µg/mL (≈ 30.9 µM) | 8 µg/mL (≈ 15.4 µM) | 16 µg/mL (≈ 30.9 µM) | 2 µg/mL (≈ 3.86 µM) | 16 µg/mL (≈ 30.9 µM) | 2 µg/mL (≈ 3.86 µM) | 8 µg/mL (≈ 15.4 µM) | 4 µg/mL (≈ 7.71 µM) | 16 µg/mL (≈ 30.9 µM) | 8 µg/mL (≈ 15.4 µM)
CC(=O)NC[C@H]1CN(c2ccc(N3CCN(Cc4cc(-c5ccc(F)cc5)no4)CC3)c(F)c2)C(=O)O1 | 4 µg/mL (≈ 7.82 µM) | 8 µg/mL (≈ 15.6 µM) | 4 µg/mL (≈ 7.82 µM) | 8 µg/mL (≈ 15.6 µM) | 2 µg/mL (≈ 3.91 µM) | 4 µg/mL (≈ 7.82 µM) | 2 µg/mL (≈ 3.91 µM) | 4 µg/mL (≈ 7.82 µM) | 2 µg/mL (≈ 3.91 µM) | 8 µg/mL (≈ 15.6 µM) | 4 µg/mL (≈ 7.82 µM)
CC(=O)NC[C@H]1CN(c2ccc(N3CCN(Cc4cc(/C=C/c5ccccc5)no4)CC3)c(F)c2)C(=O)O1 | 8 µg/mL (≈ 15.4 µM) | > 32 µg/mL | 16 µg/mL (≈ 30.8 µM) | > 32 µg/mL | 2 µg/mL (≈ 3.85 µM) | 16 µg/mL (≈ 30.8 µM) | 2 µg/mL (≈ 3.85 µM) | 8 µg/mL (≈ 15.4 µM) | 2 µg/mL (≈ 3.85 µM) |  | 32 µg/mL (≈ 61.6 µM)
CC(=O)NC[C@H]1CN(c2ccc(N3CCN(C(=O)c4cc(-c5cccs5)no4)CC3)c(F)c2)C(=O)O1 | 1 µg/mL (≈ 1.95 µM) | 1 µg/mL (≈ 1.95 µM) | 1 µg/mL (≈ 1.95 µM) | 1 µg/mL (≈ 1.95 µM) | 0.5 µg/mL (≈ 0.974 µM) | 1 µg/mL (≈ 1.95 µM) | 0.5 µg/mL (≈ 0.974 µM) | 1 µg/mL (≈ 1.95 µM) | 0.25 µg/mL (≈ 0.487 µM) | 1 µg/mL (≈ 1.95 µM) | 1 µg/mL (≈ 1.95 µM)
CC(=O)NC[C@H]1CN(c2ccc(N3CCN(C(=O)c4cc(O)no4)CC3)c(F)c2)C(=O)O1 | > 32 µg/mL | > 32 µg/mL | > 32 µg/mL | > 32 µg/mL | 16 µg/mL (≈ 35.8 µM) | > 32 µg/mL | 16 µg/mL (≈ 35.8 µM) |  | > 32 µg/mL |  | 
CC(=O)NC[C@H]1CN(c2ccc(N3CCOCC3)c(F)c2)C(=O)O1 [LINEZOLID] | 1 µg/mL (≈ 2.96 µM) |  | 1 µg/mL (≈ 2.96 µM) |  | 0.5 µg/mL (≈ 1.48 µM) |  | 0.5 µg/mL (≈ 1.48 µM) | 2 µg/mL (≈ 5.93 µM) | 1 µg/mL (≈ 2.96 µM) |  | 1 µg/mL (≈ 2.96 µM)
